Laboratory results taken from patent publication US11053235B2, “Substituted 1,4-dihydropyrimidines for the treatment of HBV infection or HBV-induced diseases” (Janssen Sciences Ireland Unlimited Company, priority 2018, dated 2021).
Counter-ions that a name gives are not always drawn. Like-named read-outs stand apart in the source and are kept apart here.

Key:
[1] = test system: HBV; test: Anti-viral assay in HepG2.2.15 cells: HBV inhibitory activity (HBV DNA in culture medium by q-PCR); format: cell-based; settings: Hepatitis B virus, HepG2.2.15, 144 h
Summary of the method: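 HBV DNA released into the medium was measured by q-PCR after 6-day compound exposure of HepG2.2.15 cells (40,000/well, 2% FBS, one mid-course medium change). Eight 3-fold dilutions, highest 10 uM; EC50 derived by curve fitting.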

[2] = Cytotoxicity determination in HepG2.2.15 cells (CCK-8); format: cell-based; settings: human, 6 days treatment, CCK-8, highest concentration 100 uM
Summary of the method: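 CC50 derived from CCK-8 absorbance (450 nm, 630 nm reference) after 2.5 h incubation at 37 °C. Before that, HepG2.2.15 cells (5,000/well, 2% FBS) received an 8-point, 3-fold compound series topping at 100 uM for 6 days, with one mid-treatment medium change.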

[3] = HepG2.2.15 cells, 6 days treatment, HBV DNA in culture medium by q-PCR, highest concentration 10 uM, read-out: EC50

Q: For `CCOC(=O)C1=C(C2CCN(c3ncc(CC)c(C(=O)O)n3)CC2)NC(c2nccs2)=NC1c1ccc(F)c(F)c1Cl` (single isomer, unassigned) [II-60-B, 2-(4-(6-(2-Chloro-3,4-difluorophenyl)-5-(ethoxycarbonyl)-2-(thiazol-2-yl)-3,6-dihydropyrimidin-4-yl)piperidin-1-yl)-5-ethylpyrimidine-4-carboxylic Acid], which EC50 [1, 3] is on record?
A: 5.9 nM

Q: What about the CC50 at 6 days [2] of the same compound?
A: 8920 nM

Q: With `CCOC(=O)C1=C(C2CCN(c3ncc(Cl)c(C(=O)O)n3)CC2)NC(c2nccs2)=NC1c1ccc(F)c(F)c1Cl` (single isomer, unassigned) [II-61-B, 5-Chloro-2-(4-(6-(2-chloro-3,4-difluorophenyl)-5-(ethoxycarbonyl)-2-(thiazol-2-yl)-3,6-dihydropyrimidin-4-yl)piperidin-1-yl)pyrimidine-4-carboxylic Acid] as the compound, how does the EC50 [1, 3] read?
A: 9.1 nM

Q: What about the CC50 at 6 days [2] of the same compound?
A: 6680 nM

Q: Which EC50 [1, 3] does the source give for `CCOC(=O)C1=C(C2CCN(c3ncc(F)c(C(=O)O)n3)CC2)NC(c2nccs2)=NC1c1ccc(F)c(F)c1Cl` (single isomer, unassigned) [II-62-B, 2-(4-(6-(2-Chloro-3,4-difluorophenyl)-5-(ethoxycarbonyl)-2-(thiazol-2-yl)-3,6-dihydropyrimidin-4-yl)piperidin-1-yl)-5-fluoropyrimidine-4-carboxylic Acid] here?
A: 16 nM

Q: What about the CC50 at 6 days [2] of the same compound?
A: 6690 nM

Q: Which results are given for `CCOC(=O)C1=C(C2CCN(c3ncc(C)c(C(=O)O)n3)CC2)NC(c2nccs2)=NC1c1ccc(F)c(F)c1Cl` (single isomer, unassigned) [II-63-B, 2-(4-(6-(2-Chloro-3,4-difluorophenyl)-5-(ethoxycarbonyl)-2-(thiazol-2-yl)-3,6-dihydropyrimidin-4-yl)piperidin-1-yl)-5-methylpyrimidine-4-carboxylic Acid]?
A: EC50 [1, 3]: 21 nM; CC50 at 6 days [2]: 8280 nM

Q: Which EC50 [1] does the source give for `CCOC(=O)C1=C(C2CCN(c3nc(C)c(C(=O)O)o3)CC2)NC(c2nccs2)=NC1c1ccc(F)c(F)c1Cl` (single isomer, unassigned) [II-64-B, Lithium 2-(4-(6-(2-chloro-3,4-difluorophenyl)-5-(ethoxycarbonyl)-2-(thiazol-2-yl)-3,6-dihydropyrimidin-4-yl)piperidin-1-yl)-4-methyloxazole-5-carboxylate] here?
A: 75 nM

Q: And the CC50 at 6 days [2]?
A: 6840 nM

Q: For `CCOC(=O)C1=C(C2CCN(c3nccc(C(=O)O)n3)CC2)NC(c2nccs2)=NC1c1ccc(F)c(F)c1Cl` (single isomer, unassigned) [II-65-B, 2-(4-(6-(2-chloro-3,4-difluorophenyl)-5-(ethoxycarbonyl)-2-(thiazol-2-yl)-3,6-dihydropyrimidin-4-yl)piperidin-1-yl)pyrimidine-4-carboxylic Acid], which EC50 [1, 3] is on record?
A: 4.6 nM

Q: And the CC50 at 6 days [2]?
A: 6640 nM

Q: For `CCOC(=O)C1=C(C2CCN(c3ncc(CCC(=O)O)cn3)CC2)NC(c2nccs2)=NC1c1ccc(F)c(F)c1Cl` (single isomer, unassigned) [II-66-B, 3-(2-(4-(6-(2-Chloro-3,4-difluorophenyl)-5-(ethoxycarbonyl)-2-(thiazol-2-yl)-3,6-dihydropyrimidin-4-yl)piperidin-1-yl)pyrimidin-5-yl)propanoic Acid], which EC50 [1, 3] is on record?
A: 7.2 nM

Q: And the CC50 at 6 days [2]?
A: 10900 nM

Q: Which EC50 [1, 3] does the source give for `CCOC(=O)C1=C(C2CCN(c3ncc(C(C)(C)C(=O)O)cn3)CC2)NC(c2nccs2)=NC1c1ccc(F)c(F)c1Cl` (single isomer, unassigned) [II-67-B, 2-(2-(4-(6-(2-Chloro-3,4-difluorophenyl)-5-(ethoxycarbonyl)-2-(thiazol-2-yl)-3,6-dihydropyrimidin-4-yl)piperidin-1-yl)pyrimidin-5-yl)-2-methylpropanoic Acid] here?
A: 12 nM

Q: And the CC50 at 6 days [2]?
A: 2020 nM

Q: For `CCOC(=O)C1=C(C2CCN(c3nc(C(=O)O)c(C)o3)CC2)NC(c2nccs2)=NC1c1ccc(F)c(F)c1Cl` (single isomer, unassigned) [II-68-B, 2-(4-(6-(2-Chloro-3,4-difluorophenyl)-5-(ethoxycarbonyl)-2-(thiazol-2-yl)-3,6-dihydropyrimidin-4-yl)piperidin-1-yl)5-methyloxazole-4-carboxylic Acid], which EC50 [1, 3] is on record?
A: 16 nM

Q: What about the CC50 at 6 days [2] of the same compound?
A: 8320 nM

Q: Which results are given for `CCOC(=O)C1=C(C2CCN(c3ncc(CC(=O)O)cn3)CC2)NC(c2nccs2)=NC1c1ccc(F)c(F)c1Cl` (single isomer, unassigned) [II-69-B, 2-(2-(4-(6-(2-Chloro-3,4-difluorophenyl)-5-(ethoxycarbonyl)-2-(thiazol-2-yl)-3,6-dihydropyrimidin-4-yl)piperidin-1-yl)pyrimidin-5-yl)acetic Acid]?
A: EC50 [1, 3]: 3.1 nM; CC50 at 6 days [2]: 4080 nM

Q: For `CCOC(=O)C1=C(C2CCN(c3nc(C(=O)O)co3)CC2)NC(c2nccs2)=NC1c1ccc(F)c(F)c1Cl` (single isomer, unassigned) [II-70-B, 2-(4-(6-(2-Chloro-3,4-difluorophenyl)-5-(ethoxycarbonyl)-2-(thiazol-2-yl)-3,6-dihydropyrimidin-4-yl)piperidin-1-yl)oxazole-4-carboxylic Acid], which EC50 [1, 3] is on record?
A: 10 nM

Q: What about the CC50 at 6 days [2] of the same compound?
A: 11800 nM

Q: For `CCOC(=O)C1=C(C2CCN(c3nc(C)c(C(=O)O)c(C)n3)CC2)NC(c2nccs2)=NC1c1ccc(F)c(F)c1Cl` (single isomer, unassigned) [II-71-B, 2-(4-(6-(2-chloro-3,4-difluorophenyl)-5-(ethoxycarbonyl)-2-(thiazol-2-yl)-3,6-dihydropyrimidin-4-yl)piperidin-1-yl)-4,6-dimethylpyrimidine-5-carboxylic Acid], which EC50 [1, 3] is on record?
A: 20 nM

Q: What about the CC50 at 6 days [2] of the same compound?
A: 6330 nM

Q: Which EC50 [1, 3] does the source give for `CCOC(=O)C1=C(C2CCN(c3ncc(C(=O)O)c(C)n3)CC2)NC(c2nccs2)=NC1c1ccc(F)c(F)c1Cl` (single isomer, unassigned) [II-73-B, 2-(4-(6-(2-Chloro-3,4-difluorophenyl)-5-(ethoxycarbonyl)-2-(thiazol-2-yl)-3,6-dihydropyrimidin-4-yl)piperidin-1-yl)-4-methylpyrimidine-5-carboxylic Acid] here?
A: 25 nM

Q: What about the CC50 at 6 days [2] of the same compound?
A: 5920 nM

Q: With `CCOC(=O)C1=C(C2CCN(c3ncc(C(=O)O)cn3)CC2)NC(c2nccs2)=NC1c1ccc(F)c(F)c1Cl` (single isomer, unassigned) [II-74-B, 2-(4-(6-(2-Chloro-3,4-difluorophenyl)-5-(ethoxycarbonyl)-2-(thiazol-2-yl)-3,6-dihydropyrimidin-4-yl)piperidin-1-yl)pyrimidine-5-carboxylic Acid] as the compound, how does the EC50 [1, 3] read?
A: 6.6 nM

Q: What about the CC50 at 6 days [2] of the same compound?
A: 9310 nM

Q: For `CCOC(=O)C1=C(C2CCN(c3nncs3)CC2)NC(c2nccs2)=NC1c1ccc(F)c(F)c1Cl` (single isomer, unassigned) [II-75-X, Ethyl 6-(1-(1,3,4-thiadiazol-2-yl)piperidin-4-yl)-4-(2-chloro-3,4-difluorophenyl)-2-(thiazol-2-yl)-1,4-dihydropyrimidine-5-carboxylate], which EC50 [1, 3] is on record?
A: 30 nM

Q: What about the CC50 at 6 days [2] of the same compound?
A: 9810 nM

Q: Which EC50 [1] does the source give for `CCOC(=O)C1=C(C2CCN(c3cnc(C(=O)O)s3)CC2)NC(c2nccs2)=NC1c1ccc(F)c(F)c1Cl` (single isomer, unassigned) [II-76-B, 5-(4-(6-(2-Chloro-3,4-difluorophenyl)-5-(ethoxycarbonyl)-2-(thiazol-2-yl)-3,6-dihydropyrimidin-4-yl)piperidin-1-yl)thiazole-2-carboxylate lithium salt] here?
A: 90 nM

Q: And the CC50 at 6 days [2]?
A: 6680 nM

Q: With `CCOC(=O)C1=C(C2CCN(c3nc(COC)c(C(=O)O)s3)CC2)NC(c2nccs2)=NC1c1ccc(F)c(F)c1Cl` (single isomer, unassigned) [II-77-B, 2-(4-(6-(2-Chloro-3,4-difluorophenyl)-5-(ethoxycarbonyl)-2-(thiazol-2-yl)-3,6-dihydropyrimidin-4-yl)piperidin-1-yl)-4-(methoxymethyl)thiazole-5-carboxylic Acid] as the compound, how does the EC50 [1, 3] read?
A: 29 nM

Q: And the CC50 at 6 days [2]?
A: 9740 nM

Q: With `CCOC(=O)C1=C(C2CCN(c3ncc(C(=O)O)s3)CC2)NC(c2nccs2)=NC1c1ccc(F)c(F)c1Cl` (single isomer, unassigned) [II-78-B, 2-(4-(6-(2-Chloro-3,4-difluorophenyl)-5-(ethoxycarbonyl)-2-(thiazol-2-yl)-3,6-dihydropyrimidin-4-yl)piperidin-1-yl)thiazole-5-carboxylic Acid] as the compound, how does the EC50 [1, 3] read?
A: < 4.6 nM

Q: What about the CC50 at 6 days [2] of the same compound?
A: 12100 nM

Q: With `CCOC(=O)C1=C(C2CCN(c3nc(C(F)(F)F)c(C(=O)O)s3)CC2)NC(c2nccs2)=NC1c1ccc(F)c(F)c1Cl` (single isomer, unassigned) [II-79-B, 2-(4-(6-(2-Chloro-3,4-difluorophenyl)-5-(ethoxycarbonyl)-2-(thiazol-2-yl)-3,6-dihydropyrimidin-4-yl)piperidin-1-yl)-4-(trifluoromethyl)thiazole-5-carboxylic Acid] as the compound, how does the EC50 [1, 3] read?
A: 13 nM

Q: What about the CC50 at 6 days [2] of the same compound?
A: 1140 nM

Q: For `CCOC(=O)C1=C(C2CCN(c3nc(C(=O)O)cs3)CC2)NC(c2nccs2)=NC1c1ccc(F)c(F)c1Cl` (single isomer, unassigned) [II-80-B, 2-(4-(6-(2-Chloro-3,4-difluorophenyl)-5-(ethoxycarbonyl)-2-(thiazol-2-yl)-3,6-dihydropyrimidin-4-yl)piperidin-1-yl)thiazole-4-carboxylic Acid], which EC50 [1, 3] is on record?
A: 45 nM

Q: And the CC50 at 6 days [2]?
A: 10200 nM

Q: Which EC50 [1, 3] does the source give for `COC(=O)C1=C(C2CCN(c3ncc(C)c(C(=O)O)n3)CC2)NC(c2nccs2)=NC1c1ccc(Br)cc1Cl` (single isomer, unassigned) [II-81-B, 2-(4-(6-(4-bromo-2-chlorophenyl)-5-(methoxycarbonyl)-2-(thiazol-2-yl)-3,6-dihydropyrimidin-4-yl)piperidin-1-yl)-5-methylpyrimidine-4-carboxylic Acid] here?
A: 54 nM

Q: What about the CC50 at 6 days [2] of the same compound?
A: 12400 nM
